The structures appear in SMILES notation.

A short description of the data set: gradient 5% acetonitrile 3 min, to 50% in 2 min, to 85% in 15 min, held 3 min, 100 µL/min. The settings on record: column: Zorbax Extend-C18 2.1 x 50 mm; eluents: water / acetonitrile, 0.1% formic acid. The method in brief: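 The mobile phases were water and acetonitrile, each with 0.1% formic acid, pumped at 100 μL/min through a Zorbax Extend-C18 column (2.1 × 50 mm, 1.8 μm). Pure standards were injected as mixtures of ~100 molecules and detected by a quadrupole time-of-flight mass spectrometer in positive and negative ionization mode. Retention time came from computationally picked adduct peaks, each inspected by hand.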
As for `Cc1ccc(-n2ncc3c(=O)n(Cc4nc(-c5ccc(OC(F)(F)F)cc5)no4)cnc32)cc1`, the RP-LC retention time turned out to be 1200 s.

For the compound `Cc1nc2cc(N3CC(C(=O)Nc4ccc(F)cc4C)CC3=O)ccc2o1` (stereo not drawn), the RP-LC retention time worked out at 718 s.

As for `CC(C)NC(=O)c1ccccc1OCC1CCN(C(=O)c2cc(F)cc(F)c2)CC1`, the RP-LC retention time amounted to 927 s.

Take `CC(C)n1c(CCNC(=O)Cc2ccc(F)cc2)nc2cccnc21`: the RP-LC retention time was 672 s.

For `Cc1c(C(=O)NC(C)C)cnn1-c1ccc(-c2nc(C(C)(C)C)no2)cn1`, the RP-LC retention time worked out at 1020 s.

Take `O=C1CC(c2noc(-c3ccc4c(c3)OCO4)n2)CN1c1ccc(F)c(Cl)c1` (stereo not drawn): the RP-LC retention time amounted to 1010 s.

With `CCOc1ccc(Cl)cc1S(=O)(=O)N1CCC(C(=O)NCCO)CC1`, the RP-LC retention time was found to be 692 s.

Regarding `CN(Cc1ccccc1)C(=O)c1cn(-c2cc(N3CCSCC3)ncn2)cn1`, the RP-LC retention time came to 869 s.

The compound `CCCn1cnnc1C1CCCCN1S(=O)(=O)c1cccc(C#N)c1` (stereo not drawn) gave an RP-LC retention time of 748 s.

Take `Cc1csc(-c2cc(S(=O)(=O)Nc3ccc(S(N)(=O)=O)cc3)c(C)s2)n1`: the RP-LC retention time is 797 s.

`O=C(Cn1nc2c(N3CCCCCC3)nccn2c1=O)NCc1cc(F)cc(F)c1` returned an RP-LC retention time of 744 s.

With `Cn1c(=O)n(C)c2cc(Nc3cc(N4CCOCC4)ncn3)ccc21`, the RP-LC retention time came out at 566 s.

Consider `Fc1ccc(-c2noc(-c3ccc(N4CCOCC4)nc3)n2)cc1`, for which the RP-LC retention time turned out to be 1080 s.

`Cc1ccccc1CNC(=O)CS(=O)Cc1cnn(-c2ccccc2)c1-n1cccc1` (stereo not drawn) registered an RP-LC retention time of 875 s.

In turn, `Cc1c(C(=O)N2CCCC(C)C2)cnn1-c1ccc(-c2nc(C(C)C)no2)cn1` (stereo not drawn) returned an RP-LC retention time of 1120 s.

In turn, `CN1CCN(CCNC(=O)C2CCN(c3nc4cccnc4s3)CC2)CC1` yielded an RP-LC retention time of 555 s.

Take `O=C1CCCc2cc(S(=O)(=O)N3CCC(C(=O)NCCc4cccs4)CC3)ccc2N1`: the RP-LC retention time came out at 717 s.

For `COc1cccc(S(=O)(=O)N2C[C@@H](F)C[C@H]2C(=O)N2CCc3ccccc3C2)c1`, the RP-LC retention time is 904 s.

In the case of `Cn1cccc1C(=O)N1CC(Oc2ccc(-c3nc(-c4ccccc4)no3)cc2)C1`, the RP-LC retention time was 1170 s.

With `Cc1ccc(-c2noc(-c3cccc(S(=O)(=O)N(C)Cc4ccco4)c3)n2)cc1`, the RP-LC retention time amounted to 1260 s.

`O=C(Nc1cccc(F)c1)C1CCCN(c2nc3ccsc3c(=O)n2Cc2ccc(F)cc2)C1` (stereo not drawn) displayed an RP-LC retention time of 1050 s.

The compound `CC(C)c1nc(-n2cccc2)sc1C(=O)Nc1ccccc1F` came in with an RP-LC retention time of 1270 s.

`CNC(=O)CN(C)C(=O)c1cc2c(s1)N(C)CCCC2` displayed an RP-LC retention time of 686 s.

Consider `Cc1cc(C(=O)N2CCOCC2)c2cc(Cl)ccc2n1`, for which the RP-LC retention time turned out to be 640 s.

As to `CCn1c(=O)c(N2CCN(C(=O)Nc3cc(Cl)c(OC)cc3OC)CC2)nc2cccnc21`, the RP-LC retention time was 982 s.

The compound `O=c1n(Cc2cccc(F)c2)nc2ccc(S(=O)(=O)N3CCCCC3)cn12` had an RP-LC retention time of 952 s.

Compound `O=C(CN1C(=O)C(C(=O)N2CCCC2)Sc2ccccc21)Nc1ccc(F)c(F)c1` (stereo not drawn) came in with an RP-LC retention time of 1040 s.

Regarding `CCc1ccc2c(c1)cc(S(=O)(=O)c1ccccc1)c(=O)n2CC(=O)NC1CCCCC1`, the RP-LC retention time is 1030 s.

Turning to `O=C(c1cn2nc(Cl)ccc2n1)N1CCN(c2ccc(Cl)cc2)CC1`, the RP-LC retention time turned out to be 858 s.

Take `CCc1nc(NCc2ccc(OC)c(OC)c2)ncc1C(=O)O`: the RP-LC retention time turned out to be 682 s.

As for `O=C1CCCc2cc(S(=O)(=O)NCCN3CCN(c4ccccc4F)CC3)ccc2N1`, the RP-LC retention time turned out to be 621 s.

Compound `COc1cccc(-n2c(N3CCCC(C(=O)NCCN4CCCCC4)C3)nc3ccsc3c2=O)c1` (stereo not drawn) returned an RP-LC retention time of 632 s.

As to `Cc1cc(C)cc(-n2ccn(Cc3nc(-c4ccc(F)cc4)no3)c(=O)c2=O)c1`, the RP-LC retention time was 884 s.

`CC(C)OC(=O)COC(=O)c1cn(-c2cccc(Cl)c2)c(=O)c2ccccc12`: the RP-LC retention time came to 1140 s.

`COCCCNC(=O)Cc1c(C)n(C)c2nc(-c3ccccc3)nn2c1=O` yielded an RP-LC retention time of 618 s.

Turning to `CN(CC1CCOC1)C(=O)NCCc1ccccc1` (stereo not drawn), the RP-LC retention time came out at 650 s.

`CC1=C(c2ccc(C)cc2)S(=O)(=O)N=C1N1CCCN(C(=O)C2CCC2)CC1` showed an RP-LC retention time of 818 s.

`CC(C)NC(=O)c1sc(-n2cccc2)nc1C(C)C` registered an RP-LC retention time of 1060 s.

The compound `Cc1sc2ccn(C)c(=O)c2c1C(=O)N1CCN(c2ccccn2)CC1` showed an RP-LC retention time of 564 s.

With `Cc1ccsc1C(=O)N1C[C@@H]2CCCN3CCC[C@@H]([C@H]23)[C@H]1CCCC(=O)N1CCOCC1`, the RP-LC retention time was 593 s.

On to `Cc1cc2c(c(=O)n(-c3ccccc3)c(=O)n2CC(=O)Nc2cccc(C(C)C)c2)n1C`, for which the RP-LC retention time was found to be 975 s.

`COc1ccccc1N1CCN(CCNC(=O)NCc2cccs2)CC1` registered an RP-LC retention time of 586 s.

Consider `CCN(CC)S(=O)(=O)c1cc(-c2nnc(-c3ccccc3OC)o2)ccc1OC`, for which the RP-LC retention time amounted to 903 s.

`Cc1ccc(CNC(=O)c2c(C)sc3ccn(Cc4ccc(F)cc4)c(=O)c23)o1` registered an RP-LC retention time of 980 s.

With `CCn1cc(C2=CCN(S(=O)(=O)c3cccc(F)c3)CC2)c2cccnc21`, the RP-LC retention time was determined as 1020 s.

Compound `COCc1cc2nn(CC(=O)Nc3ccc(C)cc3)c(=O)n2c(-c2ccccc2)n1` gave an RP-LC retention time of 838 s.

`COc1c(C)cc(S(=O)(=O)NCCN2CCOCC2)c(C)c1C` had an RP-LC retention time of 568 s.

As for `COc1ccc(OC)c(NC(=O)COc2cc(C(F)(F)F)c3c(C)nn(C)c3n2)c1`, the RP-LC retention time is 1100 s.

The compound `COc1ccc(-c2nc(CC3CCNC3)no2)cc1` (stereo not drawn) showed an RP-LC retention time of 607 s.

Take `Cc1cccc2sc(N(CCN(C)C)C(=O)c3ccc(S(=O)(=O)N(C)C)cc3)nc12`: the RP-LC retention time is 598 s.

`CC1CN(C(=O)CSc2cn(CC(=O)N3CCCCC3)c3ccccc23)CC(C)O1` (stereo not drawn) gave an RP-LC retention time of 812 s.

For `Cc1noc(C)c1Cc1ccc(C(=O)N2CCC(N3C[C@H](O)C[C@H]3C(=O)NC3CCCCC3)CC2)o1`, the RP-LC retention time was 656 s.

As to `O=C(C1CCN(c2ccc(Sc3cccc(F)c3)nn2)CC1)N1CCN(c2ccccn2)CC1`, the RP-LC retention time came out at 626 s.

For the compound `CC(C)OCCCNC(=O)C1CCN(S(C)(=O)=O)c2cc(Cl)ccc2O1` (stereo not drawn), the RP-LC retention time was 838 s.

In the case of `COc1ccc2c(c1OC)C(=O)O[C@@H]2[C@H]1c2cc3c(cc2CCN1C)OCO3`, the RP-LC retention time turned out to be 660 s.

In the case of `COc1ccc(-c2oc3ccc(OC)cc3c2C(=O)O)cc1`, the RP-LC retention time was 879 s.

For `COc1ccc(-c2nnc(N3CCC(C(=O)NC(C)c4ccc(OC)cc4)CC3)o2)cc1` (stereo not drawn), the RP-LC retention time is 815 s.

Compound `COc1ccc2cccc(CCNC(C)=O)c2c1` had an RP-LC retention time of 696 s.

In the case of `CCOc1ccccc1NC(=O)C(=O)Nc1ccc([N+](=O)[O-])cc1`, the RP-LC retention time worked out at 1060 s.

On to `COc1ccccc1OCCNC(=O)c1ccc2[nH]c3c(c2c1)CN(C(C)=O)CC3`, for which the RP-LC retention time came out at 680 s.

`CC1CCN(CCNS(=O)(=O)c2ccccc2-c2nc(-c3ccccc3)no2)CC1` came in with an RP-LC retention time of 735 s.

Turning to `CC(C)(C)NC(=O)CN1C(=O)C2CCCCN2c2ccc(S(=O)(=O)N3CCCCC3)cc21` (stereo not drawn), the RP-LC retention time worked out at 981 s.

In turn, `Cc1ccc(-c2nc(N)n(C(=O)c3ccc(C(C)(C)C)cc3)n2)cc1C` had an RP-LC retention time of 1350 s.

In turn, `Cc1ccc(-c2noc(Cn3ccn4nc(-c5ccc6c(c5)OCO6)cc4c3=O)n2)cc1` displayed an RP-LC retention time of 1050 s.

`CCCn1c(-c2cccc(C(=O)NCc3ccc(C(F)(F)F)cc3)c2)nc2cccnc21` had an RP-LC retention time of 933 s.

Compound `Cc1nn(CC(=O)NCCCN(C)C)c(=O)c2nc(-c3ccccc3)sc12` had an RP-LC retention time of 604 s.

The compound `CCOc1ccc2nc(C(=O)NCc3ccccc3Br)cn2n1` gave an RP-LC retention time of 947 s.

As to `O=C(CN1C(=O)C2CCCCN2c2ccc(S(=O)(=O)N3CCCCC3)cc21)NC1CCCC1` (stereo not drawn), the RP-LC retention time came to 980 s.

With `CCCC(NC(=O)c1cccc(Cl)c1)C(=O)Nc1nc2ccccc2[nH]1` (stereo not drawn), the RP-LC retention time was 742 s.

`O=C(NCC1CCCO1)c1cn(-c2cc(-c3nc(C4CC4)no3)ccn2)cn1` (stereo not drawn) gave an RP-LC retention time of 762 s.

Regarding `CCN1C(=O)C2(CCN(S(=O)(=O)Cc3ccccc3)CC2)c2ccccc21`, the RP-LC retention time came to 976 s.

On to `COc1ccc(-c2nc(-c3ccc4oc(C)nc4c3)no2)c(OC)c1`, for which the RP-LC retention time worked out at 976 s.

As for `CC1CCN(S(=O)(=O)c2ccc3c(c2)CCCC(=O)N3CC(=O)N2CCc3ccccc32)CC1`, the RP-LC retention time amounted to 1030 s.

As to `CCN1c2ccc(F)cc2C(=O)NC12CCN(C(=O)c1ccc(C)cc1)CC2`, the RP-LC retention time is 824 s.

In turn, `N#Cc1cccc(CN2C[C@@H]3C(=O)N(CCc4ccccc4)C(=O)[C@@H]3C2)c1` had an RP-LC retention time of 849 s.

`CCCn1ccc2sc(C)c(C(=O)NC3CCN(Cc4ccccc4)CC3)c2c1=O` gave an RP-LC retention time of 625 s.

Take `CCn1ccc(C(=O)N2CCC3(CC2)c2nccn2-c2ccccc2CN3CC(C)C)n1`: the RP-LC retention time is 599 s.

For `COc1ccc(NC(=O)C2CCc3nc(N4CCCCC4)ncc3C2)cc1C(F)(F)F` (stereo not drawn), the RP-LC retention time turned out to be 894 s.

The values are drawn from the METLIN SMRT retention time set (Domingo-Almenara et al. 2019).
